Results published in patent US7223865B2, “Chromogenic compounds, and use thereof as enzyme substrates” (Biomerieux, priority 2003, dated 2007).

What was measured:
Experiment in all cases: L-alanine-aminopeptidase activity on gelled medium, Example 8
Type in all cases: cell-based
Set-up in all cases: key to growth: ++ means good growth; + means moderate growth; +/− means poor growth; NG means no growth
[1] = test system: Burkholderia cepacia (NCTC 10743)
Method: (§1) A gelled medium comprising these three substrates is prepared as follows: 30 mg of each substrate are dissolved (heating) in 10 ml of sterile distilled water. Ten ml of this solution are then added to 90 ml of Columbia agar kept molten at 50° C.
(§2) Various strains of microorganisms derived from the NCTC collection (National Collection of Type Cultures, Colindale, UK) were seeded onto the media thus obtained according to multipoint inoculation: for each strain, a drop of 10 μl of a suspension at 0.5 McFarland is deposited onto each of the culture media.
(§3) The colonies formed were examined visually after incubation for 24 h and 48 h. The color and the growth of these colonies were noted.

[2] = test system: E. coli O157 (NCTC 12079)
Method: as §1, §2, §3

[3] = test system: Enterobacter cloacae (NCTC 11936)
Method: as §1, §2, §3

[4] = test system: Enterococcus faecalis (NCTC 12697)
Method: as §1, §2, §3

[5] = test system: Enterococcus faecalis (NCTC 755)
Method: as §1, §2, §3

[6] = test system: Enterococcus faecium (NCTC 7171)
Method: as §1, §2, §3

[7] = test system: Klebsiella pneumoniae (NCTC 10896)
Method: as §1, §2, §3

[8] = test system: Listeria monocytogenes (NCTC 11994)
Method: as §1, §2, §3

[9] = test system: Pseudomonas aeruginosa (NCTC 10662)
Method: as §1, §2, §3

[10] = test system: Salmonella poona (NCTC 4840)
Method: as §1, §2, §3

[11] = test system: Salmonella typhimurium (NCTC 74)
Method: as §1, §2, §3

[12] = test system: Serratia marcescens (NCTC 10211)
Method: as §1, §2, §3

[13] = test system: Shigella sonnei (NCTC 9774)
Method: as §1, §2, §3

[14] = test system: Staphylococcus aureus (NCTC 11939)
Method: as §1, §2, §3

[15] = test system: Staphylococcus aureus (NCTC 6571)
Method: as §1, §2, §3

## C[C@H](N)C(=O)N[C@@H](C)C(=O)Nc1ccc(-c2c3ccccc3[n+](C)c3ccccc23)cc1.[Cl-] [L-Ala-L-Ala-4-AP-10-MA]
[1]; 24 h
  color of colonies: Orange
  growth: ++
[1]; 48 h
  color of colonies: Orange
  growth: ++
[2]; 24 h
  color of colonies: Orange
  growth: ++
[2]; 48 h
  color of colonies: Orange
  growth: ++
[3]; 24 h
  color of colonies: Orange
  growth: ++
[3]; 48 h
  color of colonies: Orange
  growth: ++
[4]; 24 h
  color of colonies: Colorless
  growth: ++
[4]; 48 h
  color of colonies: Colorless
  growth: ++
[5]; 24 h
  color of colonies: Colorless
  growth: ++
[5]; 48 h
  color of colonies: Colorless
  growth: ++
[6]; 24 h
  color of colonies: Colorless
  growth: ++
[6]; 48 h
  color of colonies: Colorless
  growth: ++
[7]; 24 h
  color of colonies: Orange
  growth: ++
[7]; 48 h
  color of colonies: Orange
  growth: ++
[8]; 24 h
  color of colonies: Colorless
  growth: ++
[8]; 48 h
  color of colonies: Colorless
  growth: ++
[9]; 24 h
  color of colonies: Orange
  growth: ++
[9]; 48 h
  color of colonies: Orange
  growth: ++
[10]; 24 h
  color of colonies: Orange
  growth: ++
[10]; 48 h
  color of colonies: Orange
  growth: ++
[11]; 24 h
  color of colonies: Orange
  growth: ++
[11]; 48 h
  color of colonies: Orange
  growth: ++
[12]; 24 h
  color of colonies: Orange
  growth: ++
[12]; 48 h
  color of colonies: Orange
  growth: ++
[13]; 24 h
  color of colonies: Orange
  growth: ++
[13]; 48 h
  color of colonies: Orange
  growth: ++
[14]; 24 h
  color of colonies: Colorless
  growth: ++
[14]; 48 h
  color of colonies: Colorless
  growth: ++
[15]; 24 h
  growth: NG
[15]; 48 h
  growth: NG

## C[C@H](N)C(=O)N[C@@H](C)C(=O)N[C@@H](C)C(=O)Nc1ccc(-c2c3ccccc3[n+](C)c3ccccc23)cc1.[Cl-] [L-Ala-L-Ala-L-Ala-4-AP-10-MA]
[1]; 24 h
  color of colonies: Orange
  growth: ++
[1]; 48 h
  color of colonies: Orange
  growth: ++
[2]; 24 h
  color of colonies: Orange
  growth: ++
[2]; 48 h
  color of colonies: Orange
  growth: ++
[3]; 24 h
  color of colonies: Orange
  growth: ++
[3]; 48 h
  color of colonies: Orange
  growth: ++
[4]; 24 h
  color of colonies: Colorless
  growth: ++
[4]; 48 h
  color of colonies: Colorless
  growth: ++
[5]; 24 h
  color of colonies: Colorless
  growth: ++
[5]; 48 h
  color of colonies: Colorless
  growth: ++
[6]; 24 h
  color of colonies: Colorless
  growth: ++
[6]; 48 h
  color of colonies: Colorless
  growth: ++
[7]; 24 h
  color of colonies: Orange
  growth: ++
[7]; 48 h
  color of colonies: Orange
  growth: ++
[8]; 24 h
  color of colonies: Colorless
  growth: ++
[8]; 48 h
  color of colonies: Colorless
  growth: ++
[9]; 24 h
  color of colonies: Orange
  growth: ++
[9]; 48 h
  color of colonies: Orange
  growth: ++
[10]; 24 h
  color of colonies: Orange
  growth: ++
[10]; 48 h
  color of colonies: Orange
  growth: ++
[11]; 24 h
  color of colonies: Orange
  growth: ++
[11]; 48 h
  color of colonies: Orange
  growth: ++
[12]; 24 h
  color of colonies: Orange
  growth: ++
[12]; 48 h
  color of colonies: Orange
  growth: ++
[13]; 24 h
  color of colonies: Orange
  growth: ++
[13]; 48 h
  color of colonies: Orange
  growth: ++
[14]; 24 h
  color of colonies: Colorless
  growth: ++
[14]; 48 h
  color of colonies: Colorless
  growth: ++
[15]; 24 h
  color of colonies: Colorless
  growth: ++
[15]; 48 h
  color of colonies: Colorless
  growth: ++
